Measurements reported in article PMC8550792, “Evolution of kinase polypharmacology across HSP90 drug discovery” (Cell Chemical Biology, 2021).
Values joined by “and” are separate entries in the source; they are usually repeats but may differ in a detail not shown here. Equal values may be shown once. Read-outs that look alike come from different tables or passages of the source.

Legend:
[1] = molecular target: T1, LYN B (Homo sapiens, UniProt P07948); test: HotSpot in vitro kinase radiometric assay; type: biochemical
T1 construct: purchased Reaction Biology (HotSpot contract assay)
In short: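 Compounds were incubated with kinase, substrate, cofactors and radiolabelled ATP (32P-ɣ-ATP or 33P-ɣ-ATP), then reaction mixtures were spotted onto filter paper that binds the labelled product. Catalytic inhibition was measured directly, without modified substrates, coupling enzymes or antibodies.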

[2] = molecular target: ABL1 (Homo sapiens, UniProt P00519); test: HotSpot in vitro kinase radiometric assay; type: biochemical; parameters: purchased Reaction Biology (HotSpot contract assay)
[3] = molecular target: T2, ABL2/ARG (Homo sapiens, UniProt P42684); test: HotSpot in vitro kinase radiometric assay; type: biochemical
T2 construct: purchased Reaction Biology (HotSpot contract assay)

[4] = tested on: HSP90AB1; parameters: method as in ChEMBL23 (accessed: 23/08/2018); conditions: average of reported values; ref ChEMBL23 (accessed: 23/08/2018); cited from earlier work
[5] = molecular target: DDR1 (Homo sapiens, UniProt Q08345); test: HotSpot in vitro kinase radiometric assay; type: biochemical; parameters: purchased Reaction Biology (HotSpot contract assay)
[6] = tested on: HSP90AA1; conditions: cited from earlier work
[7] = molecular target: T3, 382 unique human kinases (Homo sapiens, UniProt O60674, V617F); test: biochemical; type: biochemical; conditions: kinase JAK2 (V617F), compound 10 uM; for remaining activity at 10 µM: read-out: % Enzyme Activity (relative to DMSO controls)
T3 construct: purchased Reaction Biology (HotSpot contract assay)

[8] = molecular target: T4, 382 unique human kinases (Homo sapiens, UniProt P24941); test: biochemical; type: biochemical; conditions: for remaining activity at 10 µM: read-out: % Enzyme Activity (relative to DMSO controls)
T4 construct: purchased Reaction Biology (HotSpot contract assay)

[9] = molecular target: T5, 382 unique human kinases (Homo sapiens, UniProt Q00534); test: biochemical; type: biochemical; conditions: kinase CDK6/cyclin D1, compound 10 uM; for remaining activity at 10 µM: read-out: % Enzyme Activity (relative to DMSO controls)
T5 construct: purchased Reaction Biology (HotSpot contract assay)

[10] = molecular target: T6, 382 unique human kinases (Homo sapiens, UniProt Q16832, T654M); test: biochemical; type: biochemical; conditions: DDR2 (T654M), 10 uM; for remaining activity at 10 µM: read-out: % Enzyme Activity (relative to DMSO controls)
T6 construct: purchased Reaction Biology (HotSpot contract assay)
T6 sequence (Q16832 22-855 T654M): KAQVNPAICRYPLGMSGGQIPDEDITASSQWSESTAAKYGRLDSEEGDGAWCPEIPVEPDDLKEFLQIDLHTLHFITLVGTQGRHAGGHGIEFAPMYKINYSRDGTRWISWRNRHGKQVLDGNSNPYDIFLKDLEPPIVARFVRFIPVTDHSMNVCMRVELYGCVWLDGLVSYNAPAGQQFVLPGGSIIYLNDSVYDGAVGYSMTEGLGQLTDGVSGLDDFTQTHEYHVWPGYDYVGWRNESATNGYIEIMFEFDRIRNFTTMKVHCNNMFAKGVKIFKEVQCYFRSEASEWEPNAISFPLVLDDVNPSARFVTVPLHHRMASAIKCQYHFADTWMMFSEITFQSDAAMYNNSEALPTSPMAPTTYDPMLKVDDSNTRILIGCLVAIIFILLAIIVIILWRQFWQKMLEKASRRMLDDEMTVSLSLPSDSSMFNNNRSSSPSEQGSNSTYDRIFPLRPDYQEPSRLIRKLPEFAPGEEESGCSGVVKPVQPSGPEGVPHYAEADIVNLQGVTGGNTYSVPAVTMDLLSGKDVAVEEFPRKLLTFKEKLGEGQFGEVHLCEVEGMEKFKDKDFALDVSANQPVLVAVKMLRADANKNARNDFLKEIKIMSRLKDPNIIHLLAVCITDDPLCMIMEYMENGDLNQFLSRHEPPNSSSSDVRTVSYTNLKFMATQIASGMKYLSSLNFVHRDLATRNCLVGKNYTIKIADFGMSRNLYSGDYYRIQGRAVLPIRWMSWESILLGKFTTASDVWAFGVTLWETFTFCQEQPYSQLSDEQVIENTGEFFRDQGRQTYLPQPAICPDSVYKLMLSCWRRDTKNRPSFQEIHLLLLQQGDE

[11] = molecular target: T7, 382 unique human kinases (Homo sapiens, UniProt P50750); test: biochemical; type: biochemical; conditions: for remaining activity at 10 µM: read-out: % Enzyme Activity (relative to DMSO controls)
T7 construct: purchased Reaction Biology (HotSpot contract assay)

[12] = molecular target: T8, 382 unique human kinases (Homo sapiens, UniProt P11802); test: biochemical; type: biochemical; conditions: CDK4/cyclin D1, 10 uM; for remaining activity at 10 µM: read-out: % Enzyme Activity (relative to DMSO controls)
T8 construct: purchased Reaction Biology (HotSpot contract assay)

[13] = tested on: 382 unique human kinases; test: biochemical; type: biochemical
[14] = kinase CDK2/cyclin O, compound 10 uM
[15] = kinase CDK9/cyclin K, compound 10 uM

T1 sequence (P07948 1-491 isoform P07948-2): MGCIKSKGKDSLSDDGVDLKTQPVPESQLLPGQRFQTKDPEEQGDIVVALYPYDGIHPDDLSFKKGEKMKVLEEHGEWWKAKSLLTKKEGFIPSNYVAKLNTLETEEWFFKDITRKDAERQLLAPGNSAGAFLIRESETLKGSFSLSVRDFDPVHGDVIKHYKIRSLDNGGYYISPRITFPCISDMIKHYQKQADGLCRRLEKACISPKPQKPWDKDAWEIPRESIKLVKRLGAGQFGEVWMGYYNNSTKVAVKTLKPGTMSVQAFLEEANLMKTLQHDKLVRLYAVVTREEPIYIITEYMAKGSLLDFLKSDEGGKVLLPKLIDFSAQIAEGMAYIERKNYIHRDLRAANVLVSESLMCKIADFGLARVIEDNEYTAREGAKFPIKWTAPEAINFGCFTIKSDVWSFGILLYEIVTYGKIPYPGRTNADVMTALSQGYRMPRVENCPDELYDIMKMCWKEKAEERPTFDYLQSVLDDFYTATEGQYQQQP
T7 sequence (P50750 whole entry): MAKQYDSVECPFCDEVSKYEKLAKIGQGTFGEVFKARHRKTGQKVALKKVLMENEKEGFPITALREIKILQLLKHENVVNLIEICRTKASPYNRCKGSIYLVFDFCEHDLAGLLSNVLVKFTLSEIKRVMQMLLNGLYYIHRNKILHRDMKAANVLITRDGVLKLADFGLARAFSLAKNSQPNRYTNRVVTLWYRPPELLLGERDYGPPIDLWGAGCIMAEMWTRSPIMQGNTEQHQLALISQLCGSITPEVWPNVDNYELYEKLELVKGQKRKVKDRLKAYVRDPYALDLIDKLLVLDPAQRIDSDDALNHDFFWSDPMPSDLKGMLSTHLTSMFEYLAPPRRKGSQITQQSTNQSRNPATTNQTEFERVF
Sequence of DDR1 (Q08345 19-913): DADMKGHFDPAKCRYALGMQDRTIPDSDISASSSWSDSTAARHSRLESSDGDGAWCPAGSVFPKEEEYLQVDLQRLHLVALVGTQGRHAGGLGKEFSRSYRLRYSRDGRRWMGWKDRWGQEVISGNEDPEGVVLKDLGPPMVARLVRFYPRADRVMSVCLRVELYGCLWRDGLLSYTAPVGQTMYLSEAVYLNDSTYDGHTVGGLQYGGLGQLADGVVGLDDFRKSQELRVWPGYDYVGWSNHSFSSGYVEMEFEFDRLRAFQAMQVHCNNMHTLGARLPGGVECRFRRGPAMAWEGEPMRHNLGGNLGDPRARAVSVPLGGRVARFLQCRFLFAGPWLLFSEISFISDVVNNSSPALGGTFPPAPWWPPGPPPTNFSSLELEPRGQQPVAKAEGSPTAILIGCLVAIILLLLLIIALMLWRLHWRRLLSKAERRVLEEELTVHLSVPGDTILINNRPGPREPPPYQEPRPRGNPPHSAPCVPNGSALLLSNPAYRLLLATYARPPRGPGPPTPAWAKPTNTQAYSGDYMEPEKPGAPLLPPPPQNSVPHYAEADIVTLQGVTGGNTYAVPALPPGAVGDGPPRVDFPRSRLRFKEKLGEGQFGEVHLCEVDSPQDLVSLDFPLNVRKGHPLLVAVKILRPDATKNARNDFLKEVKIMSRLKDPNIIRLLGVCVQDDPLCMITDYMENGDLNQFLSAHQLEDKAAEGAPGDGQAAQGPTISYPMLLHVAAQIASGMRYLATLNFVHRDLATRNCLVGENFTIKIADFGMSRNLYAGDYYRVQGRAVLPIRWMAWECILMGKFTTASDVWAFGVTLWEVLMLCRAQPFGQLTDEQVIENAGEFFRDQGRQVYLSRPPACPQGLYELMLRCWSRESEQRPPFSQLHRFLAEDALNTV
T5 sequence (Q00534 whole entry): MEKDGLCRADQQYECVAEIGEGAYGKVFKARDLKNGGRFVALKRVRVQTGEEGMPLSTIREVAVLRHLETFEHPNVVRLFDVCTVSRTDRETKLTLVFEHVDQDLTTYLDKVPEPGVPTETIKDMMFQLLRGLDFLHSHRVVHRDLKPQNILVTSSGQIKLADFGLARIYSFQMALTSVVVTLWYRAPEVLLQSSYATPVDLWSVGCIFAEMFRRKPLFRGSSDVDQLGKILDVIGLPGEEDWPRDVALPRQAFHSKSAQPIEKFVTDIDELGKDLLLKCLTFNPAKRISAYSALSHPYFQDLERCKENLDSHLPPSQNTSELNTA
T8 sequence (P11802 whole entry): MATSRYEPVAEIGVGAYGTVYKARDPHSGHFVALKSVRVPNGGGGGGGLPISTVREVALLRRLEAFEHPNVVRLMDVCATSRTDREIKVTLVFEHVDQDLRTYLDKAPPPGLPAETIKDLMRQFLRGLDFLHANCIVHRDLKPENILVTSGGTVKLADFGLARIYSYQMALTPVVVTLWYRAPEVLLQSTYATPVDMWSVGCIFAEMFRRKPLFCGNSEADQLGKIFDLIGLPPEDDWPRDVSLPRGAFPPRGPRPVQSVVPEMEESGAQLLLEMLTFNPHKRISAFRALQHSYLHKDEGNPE
T2 sequence (P42684 whole entry): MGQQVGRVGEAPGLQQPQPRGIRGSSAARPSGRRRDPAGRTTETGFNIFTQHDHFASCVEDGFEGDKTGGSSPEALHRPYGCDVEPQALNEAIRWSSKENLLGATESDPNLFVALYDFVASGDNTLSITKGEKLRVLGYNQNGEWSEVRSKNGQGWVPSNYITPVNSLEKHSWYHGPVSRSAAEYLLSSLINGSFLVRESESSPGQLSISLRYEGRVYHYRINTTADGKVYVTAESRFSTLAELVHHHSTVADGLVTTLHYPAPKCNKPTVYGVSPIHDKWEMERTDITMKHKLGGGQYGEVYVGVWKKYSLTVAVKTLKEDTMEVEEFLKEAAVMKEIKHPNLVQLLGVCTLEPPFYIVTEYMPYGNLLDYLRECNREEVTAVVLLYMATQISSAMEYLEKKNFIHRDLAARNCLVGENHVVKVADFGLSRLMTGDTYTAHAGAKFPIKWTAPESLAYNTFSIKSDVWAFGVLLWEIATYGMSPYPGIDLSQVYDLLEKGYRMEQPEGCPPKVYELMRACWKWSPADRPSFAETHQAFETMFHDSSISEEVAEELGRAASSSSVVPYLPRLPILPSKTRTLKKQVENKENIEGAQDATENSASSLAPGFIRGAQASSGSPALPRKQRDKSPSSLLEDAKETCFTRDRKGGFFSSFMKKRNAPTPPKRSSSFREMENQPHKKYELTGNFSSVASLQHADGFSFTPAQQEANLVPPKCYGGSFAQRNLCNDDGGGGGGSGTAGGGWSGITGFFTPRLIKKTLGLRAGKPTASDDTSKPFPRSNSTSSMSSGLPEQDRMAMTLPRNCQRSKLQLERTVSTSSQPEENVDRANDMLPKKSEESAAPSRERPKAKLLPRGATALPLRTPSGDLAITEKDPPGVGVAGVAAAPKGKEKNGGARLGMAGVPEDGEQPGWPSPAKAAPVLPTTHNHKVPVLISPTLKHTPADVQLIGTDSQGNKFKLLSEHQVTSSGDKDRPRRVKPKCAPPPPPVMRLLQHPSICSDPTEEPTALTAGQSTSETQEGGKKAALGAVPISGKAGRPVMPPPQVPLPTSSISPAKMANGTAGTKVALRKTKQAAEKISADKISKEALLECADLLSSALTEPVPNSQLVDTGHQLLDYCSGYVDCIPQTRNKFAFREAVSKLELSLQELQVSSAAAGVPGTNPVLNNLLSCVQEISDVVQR
T3 sequence (O60674 whole entry V617F): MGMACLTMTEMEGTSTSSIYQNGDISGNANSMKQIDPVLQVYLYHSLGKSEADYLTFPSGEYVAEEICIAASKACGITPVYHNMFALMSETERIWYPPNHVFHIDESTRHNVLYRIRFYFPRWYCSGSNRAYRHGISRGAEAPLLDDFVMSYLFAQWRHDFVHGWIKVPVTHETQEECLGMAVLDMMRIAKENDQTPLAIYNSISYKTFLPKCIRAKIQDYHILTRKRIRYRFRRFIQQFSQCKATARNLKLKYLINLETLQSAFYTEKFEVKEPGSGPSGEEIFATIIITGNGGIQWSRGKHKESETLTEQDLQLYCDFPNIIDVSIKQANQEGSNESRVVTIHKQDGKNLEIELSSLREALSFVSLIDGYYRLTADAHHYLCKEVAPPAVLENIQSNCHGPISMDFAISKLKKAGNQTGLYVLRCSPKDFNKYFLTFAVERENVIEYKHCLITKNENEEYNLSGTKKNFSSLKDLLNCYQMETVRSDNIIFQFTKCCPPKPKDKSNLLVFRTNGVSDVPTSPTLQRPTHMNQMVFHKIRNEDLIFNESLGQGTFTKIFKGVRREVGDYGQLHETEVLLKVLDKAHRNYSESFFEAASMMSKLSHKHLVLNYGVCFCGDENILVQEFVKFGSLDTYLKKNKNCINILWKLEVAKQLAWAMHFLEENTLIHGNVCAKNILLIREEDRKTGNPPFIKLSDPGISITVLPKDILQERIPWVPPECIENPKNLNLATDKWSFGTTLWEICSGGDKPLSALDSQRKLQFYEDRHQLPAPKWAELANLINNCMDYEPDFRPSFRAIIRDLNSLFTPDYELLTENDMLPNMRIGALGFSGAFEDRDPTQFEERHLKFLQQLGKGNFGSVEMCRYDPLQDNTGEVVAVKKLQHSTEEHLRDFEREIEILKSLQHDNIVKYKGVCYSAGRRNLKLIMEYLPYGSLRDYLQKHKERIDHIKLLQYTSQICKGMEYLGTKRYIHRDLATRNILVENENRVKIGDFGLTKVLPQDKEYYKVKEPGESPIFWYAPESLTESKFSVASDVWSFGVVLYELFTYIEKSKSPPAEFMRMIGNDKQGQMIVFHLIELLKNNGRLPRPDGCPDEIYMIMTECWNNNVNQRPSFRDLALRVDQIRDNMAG

In the case of `CCNC(=O)c1noc(-c2cc(Cl)c(O)cc2O)c1-c1ccc(OC)cc1` [VER-50589], the “% Enzyme Activity (relative to DMSO controls)” value ([1]; LYN B, 10uM, ATP 20 uM, Data 1, Data 2) is reported as 103.45%, the remaining activity at 10 µM ([1]; LYN B, 10uM, ATP 20 uM, Data 1, Data 2, read-out: % Enzyme Activity (relative to DMSO controls)) is reported as 105% and the inhibition at 10 µM ([1]; read-out: % inhibition at 10 uM: LYN B, 10 μM, Fig 6C median ± standard deviation (n = 2)) is reported as -4 ± 1%. For the same compound, the “% Enzyme Activity (relative to DMSO controls)” value ([2]; ABL1, 10uM, ATP 40 uM, Data 1, Data 2) was 99.15%, the remaining activity at 10 µM ([2]; ABL1, 10uM, ATP 40 uM, Data 1, Data 2, read-out: % Enzyme Activity (relative to DMSO controls)) was 96% and the inhibition at 10 µM ([2]; read-out: % inhibition at 10 uM: ABL1, 10 μM, Fig 6C median ± standard deviation (n = 2)) was 2 ± 2%. For the same compound, the “% Enzyme Activity (relative to DMSO controls)” value ([3]; ABL2/ARG, 10uM, ATP 30 uM, Data 1, Data 2) was 107.1%, the remaining activity at 10 µM ([3]; ABL2/ARG, 10uM, ATP 30 uM, Data 1, Data 2, read-out: % Enzyme Activity (relative to DMSO controls)) was 99.9% and the inhibition at 10 µM ([3]; read-out: % inhibition at 10 uM: ABL2, 10 μM, Fig 6C median ± standard deviation (n = 2)) was -4 ± 5%. The “pActivity, HSP90AB1” value [4] was 7.55, the “% Enzyme Activity (relative to DMSO controls)” value ([5]; DDR1, 10uM, ATP 100 uM, Data 1, Data 2) was 93.93% and the remaining activity at 10 µM ([5]; DDR1, 10uM, ATP 100 uM, Data 1, Data 2, read-out: % Enzyme Activity (relative to DMSO controls)) was 90.3%. For the same compound, the inhibition at 10 µM ([5]; read-out: % inhibition at 10 uM: DDR1, 10 μM, Fig 6C median ± standard deviation (n = 2)) was 8 ± 3%, the IC50 ([6]; Fig 6C, IC50 against HSP90 shown for comparison, source not given) was 21 nM and the “pActivity, HSP90AA1” value ([6]; average of reported values, ref ChEMBL23 (accessed: 23/08/2018)) was 7.55.

`CC(C)c1cc(-c2n[nH]c(=O)n2-c2ccc3c(ccn3C)c2)c(O)cc1O` [Ganetespib (STA9090)] showed a remaining activity at 10 µM [7] of 83.1%, a remaining activity at 10 µM ([8]; CDK2/cyclin A, 10 uM) of 74.3% and a remaining activity at 10 µM [8, 14] of 92.8%. The remaining activity at 10 µM [9] was 85%, the remaining activity at 10 µM [10] was 75% and the remaining activity at 10 µM ([11]; CDK9/cyclin T2, 10 uM) was 69.9%. It also gave a remaining activity at 10 µM [11, 15] of 87% and a remaining activity at 10 µM [12] of 65.6%.

For `CCNC(=O)c1noc(-c2cc(C(C)C)c(O)cc2O)c1-c1ccc(CN2CCOCC2)cc1` [Luminespib (AUY-922)], the “% Enzyme Activity (relative to DMSO controls)” value [7] was 91.38%, the remaining activity at 10 µM [7] was 91.7% and the “% Enzyme Activity (relative to DMSO controls)” value ([8]; CDK2/cyclin A, 10 uM) was 97.81%. For the same compound, the remaining activity at 10 µM ([8]; CDK2/cyclin A, 10 uM) was 97.9%, the “% Enzyme Activity (relative to DMSO controls)” value [8, 14] was 100.70% and the remaining activity at 10 µM [8, 14] was 101%. For the same compound, the “% Enzyme Activity (relative to DMSO controls)” value [9] was 105.58%, the remaining activity at 10 µM [9] was 106% and the “% Enzyme Activity (relative to DMSO controls)” value ([13]; ALK (F1174L)-EML4, 10 uM) was 85.87% and 84.56%. For the same compound, the “% Enzyme Activity (relative to DMSO controls)” value ([13]; ALK (F1174L)-NPM1, 10 uM) was 102.87% and 100.42%, the “% Enzyme Activity (relative to DMSO controls)” value ([13]; ALK-NPM1, 10 uM) was 100.77% and 99.39% and the “% Enzyme Activity (relative to DMSO controls)” value ([13]; ALK-TFG, 10 uM) was 100.17% and 98.13%. The “% Enzyme Activity (relative to DMSO controls)” value ([13]; BRAF (R506_K507insVLR), compound at 10 uM, duplicate values) was 111.39% and 111.37%, the “% Enzyme Activity (relative to DMSO controls)” value ([13]; BRAF (d485-489/P490Y), compound at 10 uM, duplicate values) was 105.00% and 104.80% and the “% Enzyme Activity (relative to DMSO controls)” value ([13]; BRAF-KIAA1549 (Kex15Bex9), compound at 10 uM, duplicate values) was 106.11% and 102.92%. For the same compound, the “% Enzyme Activity (relative to DMSO controls)” value ([13]; BRAF-KIAA1549 (Kex16Bex9), compound at 10 uM, duplicate values) was 104.70% and 104.59%, the “% Enzyme Activity (relative to DMSO controls)” value ([13]; BRAF-SRGAP3 (Sex12Bex9), compound at 10 uM, duplicate values) was 107.79% and 106.99% and the “% Enzyme Activity (relative to DMSO controls)” value ([13]; PDGFRb-TPM3, 10 uM) was 63.63% and 61.80%. For the same compound, the “% Enzyme Activity (relative to DMSO controls)” value ([13]; PKG1b, 10 uM) was 60.28% and 59.59%, the “% Enzyme Activity (relative to DMSO controls)” value ([13]; RET-CCDC6 (PTC1), 10 uM) was 105.26% and 102.15% and the “% Enzyme Activity (relative to DMSO controls)” value ([13]; RET-NCOA4 (PTC3), 10 uM) was 95.03% and 94.64%. For the same compound, the “% Enzyme Activity (relative to DMSO controls)” value ([13]; RET-PRKAR1A (PTC2), 10 uM) was 95.60% and 94.13%, the “% Enzyme Activity (relative to DMSO controls)” value ([13]; ROS1-TPM3, 10 uM) was 97.28% and 96.49% and the “% Enzyme Activity (relative to DMSO controls)” value ([13]; kinase EGFR (A763_Y764insFHEA), compound 10 uM) was 98.66% and 97.53%. For the same compound, the “% Enzyme Activity (relative to DMSO controls)” value ([13]; kinase EGFR (D770GY), compound 10 uM) was 129.18% and 126.54%, the “% Enzyme Activity (relative to DMSO controls)” value ([13]; kinase EGFR (D770_N771insNPG), compound 10 uM) was 106.12% and 103.12% and the “% Enzyme Activity (relative to DMSO controls)” value ([13]; kinase EGFR (d746), compound 10 uM) was 98.75% and 97.31%. The “% Enzyme Activity (relative to DMSO controls)” value ([13]; kinase EGFR (d746-750/T790M/C797S), compound 10 uM) was 100.68% and 100.47%, the “% Enzyme Activity (relative to DMSO controls)” value ([13]; kinase EGFR (d747-752/P753S), compound 10 uM) was 98.74% and 98.40% and the “% Enzyme Activity (relative to DMSO controls)” value ([13]; kinase ERBB2 (P780_Y781insGSP), compound 10 uM) was 96.69% and 95.30%. For the same compound, the “% Enzyme Activity (relative to DMSO controls)” value ([13]; kinase KSR1 (L639F), compound 10 uM) was 103.34% and 102.74%, the “% Enzyme Activity (relative to DMSO controls)” value ([13]; kinase PDGFRa-FIP1L1, compound 10 uM) was 98.64% and 97.51% and the “% Enzyme Activity (relative to DMSO controls)” value ([13]; kinase RET-BCR, compound 10 uM) was 97.53% and 96.48%. The “% Enzyme Activity (relative to DMSO controls)” value [10] was 100.41%, the remaining activity at 10 µM [10] was 102% and the “% Enzyme Activity (relative to DMSO controls)” value ([11]; CDK9/cyclin T2, 10 uM) was 89.68%. The remaining activity at 10 µM ([11]; CDK9/cyclin T2, 10 uM) was 89.7%, the “% Enzyme Activity (relative to DMSO controls)” value [11, 15] was 104.02% and the remaining activity at 10 µM [11, 15] was 104%. The “% Enzyme Activity (relative to DMSO controls)” value [12] was 100.66% and the remaining activity at 10 µM [12] was 103%.
